Assay results published in patent publication US7723021B2, “Methods for treating lentivirus infections” (The J. David Gladstone Institutes, priority 2003, dated 2010).
“Also recorded” adds a separate entry of the source. Non-standard residues stand in square brackets, D forms with d. Residues, ends and D or L forms follow the SMILES beside them. *: point of attachment. Nle = CCCC[C@H](N)C(=O)O; Cbz = O=C(OCc1ccccc1)*

Key:
[1] = test system: APOBEC3G in peripheral blood lymphocytes; experiment: PBLs incubated with stimulant for 48 hours, Western blot for APOBEC3G (Example 2); assay type: cell-based, Human; conditions: incubated with stimulant for 48 hours versus unstimulated
Method: Human peripheral blood lymphocytes (PBLs) were isolated from blood and then incubated with anti-CD3 antibody (α-CD3), anti-CD28 antibody (α-CD28), IL-9, IL-12, IL-13, IL-15, or IFN-γ for 48 hours. Cells were lysed, the lysates clarified, and the protein concentration of the lysates was quantitated. Equal amounts of proteins in the lysates were separated by SDS-PAGE. After separation of the proteins by SDS-PAGE, the proteins were transferred to a membrane, and antibody to APOBEC3G was used to detect APOBEC3G protein on the membrane. The results are depicted in FIGS. 1-13.
FIG. 11 depicts the effect of PHA, anti-CD3 antibody, anti-CD28 antibody, and IL-15 on the level of APOBEC3G in peripheral blood lymphocytes. […] Western blot of cell lysates deriving from stimulated and unstimulated peripheral blood lymphocytes. PBLs were isolated from blood and then incubated with the indicated stimulant for 48 hours. Following separation of the proteins by SDS-PAGE, antibody to APOBEC3G was used to detect APOBEC3G protein. As a loading control, anti-β-actin was used to detect β-actin.

[2] = test system: Vif-mediated depletion of APOBEC3G-HA in 293T cells; experiment: Proteasome inhibitor panel in 293T cells transiently transfected with APOBEC3G-HA and Vif, immunoblot; assay type: cell-based; conditions: 15 hours
Method: 293T cells were transfected with the indicated amounts of expression vector DNA using the calcium phosphate method. Lysis buffers used for immunoblotting were (1) 100-400 mM NaCl, 50 mM Hepes, 0.2% NP40, 0-5 mM EDTA, 0.1 mM PMSF, plus complete protease inhibitor cocktail (Roche)(1 tablet/50 ml buffer) or (2) 50 mM Hepes, pH 7.2, 135 mM NaCl, 1% Triton X-100, 0.5% deoxycholate, 10% glycerol, 1 mM EDTA, 1× protease inhibitor cocktail (Calbiochem). Samples were analyzed using standard SDS-PAGE techniques.
(§1) For the proteasome inhibitor experiments in transiently transfected cells, 293T cells were transiently transfected with 0.1 μg of APOBEC3G-HA DNA, 2 μg of control vector DNA and 2 μg of either pcDNA3.1 Vif DNA vector or an additional 2 μg of control vector DNA. Twenty-four hours after transfection, the cells were treated with the indicated inhibitor and harvested 15 hours later. For the proteasome inhibitor experiments using infected H9 cells, H9 cells were infected by spinoculation as described above. Forty-four hours after infection, the cells were treated for 16 hours with either dimethylsulfoxide (DMSO) (0.1%) or 0.25 μM epoxomicin. All of the inhibitors (ALLN, MG132, epoxomicin, Calpain Inhibitor III, and clasto-Lactacystin-β-Lactone) were purchased from CalBiochem and were dissolved in DMSO.
To confirm this finding in a different system, a similar experiment was performed using 293T cells transiently transfected with an APOBEC3G-HA expression vector and either a Vif expression vector or a control vector. Twenty-four hours after transfection the cells were treated with a panel of different proteasome inhibitors for a 15-hour period. It was observed that the broadly acting proteasome inhibitors MG132 (12.5 μM) and ALLN (25 μM) as well as the more specific proteasome inhibitor clasto-Lactacystin-β-Lactone ([…], 20 μM) enhanced the levels of APOBEC3G-HA in the presence of Vif when compared to the diluent control sample (0.1% DMSO) (FIG. 8C, lanes 7 through 12).
(§2) FIG. 8A-C. Vif shortens the half-life of APOBEC3G, and proteasome inhibitors partially block the intracellular depletion of APOBEC3G-HA. (A) Pulse-Chase Radiolabeling. HEK 293 cells transiently transfected with APOBEC3G-HA and Vif or control vector DNA were pulse-labeled for 30 min. The initial pulse-labeled (t=0) samples were harvested, and the remaining samples were incubated with chase media for the indicated time points. After immunoprecipitation with anti-HA antibody, the samples were analyzed by SDS-PAGE and the gels were subjected to autoradiography. The relative intensity of the bands were quantified and the Vif (+) and Vif (−) samples were normalized to 1 and graphed (FIG. 8, right side). The T1/2 of APOBEC3G was 1.9 hours in the presence of Vif and 10 hours in the absence of Vif. (B) Proteasome inhibitor studies using infected H9 cells. Mock or HIV-1 wt-infected H9 cells were treated with the broadly active proteasome inhibitor epoxomicin (0.25 μM) or DMSO (0.1%) 44 hours after infection. Sixteen hours following treatment, the cells were harvested; and whole cell lysates were prepared by boiling the cells in Laemmli lysis buffer. Note that Epoxomicin caused an increase in endogenous APOBEC3G levels in the infected sample (compare lane 2 with lane 1). (C) Proteasome inhibitor studies using transiently-transfected 293T cells. Twenty-four hours following transfection of 293T cells with 0.1 μg APOBEC3G and 2 μg Vif or control vector DNA, the cells were treated with the indicated concentration of inhibitor for 15 hours. APOBEC3G-HA levels were elevated in the presence of the proteasome inhibitors MG132, ALLN, and clasto-lactacystin-β-lactone (lanes 8-11), but not in the presence of calpain inhibitor III (lane 12).

[3] = test system: Vif-induced degradation of APOBEC3G (26S proteasome) in H9 cells; experiment: Proteasome inhibitor experiment in HIV-1 wt-infected or mock-infected H9 cells, immunoblot of whole cell lysates; assay type: cell-based, human; conditions: 0.25 μM; for APOBEC3G levels in infected cells compared to DMSO-treated cells: treated 16 hours, 44 hours after infection
Method: as §1
To investigate whether the 26S proteasome might mediate the Vif-induced degradation of APOBEC3G, H9 cells were infected with HIV-1 wt or were mock-infected. […] Whole cell lysates were subsequently prepared by boiling the cells in Laemmli lysis buffer, followed by protein separation by SDS-PAGE and immunoblotting. As expected, APOBEC3G levels were much lower in the infected sample when compared to the uninfected sample (FIG. 8B, lanes 1 and 3).
as §2, with “APOBEC3G-HA levels were elevated in the presence of the proteasome inhibitors MG132, ALLN, and clasto-lactacystin-β-lactone (lanes 8-11), but not in the presence of calpain inhibitor III (lane 12).” left out

CCCCCCCCCCCCCC(=O)O[C@@H]1[C@@H](C)[C@@]2(O)[C@@H](C=C(CO)C[C@]3(O)C(=O)C(C)=C[C@@H]23)[C@@H]2C(C)(C)[C@]12OC(C)=O [PMA, phorbol-12-myristate-13-acetate]
level of APOBEC3G in peripheral blood lymphocytes [1]: upregulated

CCCC[C@@H](C=O)NC(=O)[C@H](CC(C)C)NC(=O)[C@H](CC(C)C)NC(C)=O [ALLN] (Ac-Leu-Leu-[Nle]-aldehyde)
levels of APOBEC3G-HA in the presence of Vif compared to diluent control (0.1% DMSO) ([2]; 25 μM): enhanced; also recorded: elevated

CC[C@H](C)[C@H](NC(=O)[C@H]([C@@H](C)CC)N(C)C(C)=O)C(=O)N[C@H](C(=O)N[C@@H](CC(C)C)C(=O)[C@@]1(C)CO1)[C@@H](C)O [epoxomicin]
Vif levels ([3]; HIV-1 wt-infected H9 cells, 16 hours): increase | APOBEC3G levels in infected cells compared to DMSO-treated cells ([3]; HIV-1 wt-infected H9 cells): elevated | APOBEC3G levels in infected cells compared to DMSO-treated cells ([3]; HIV-1 wt-infected H9 cells, listed as Epoxomicin): increase | level of APOBEC3G in the uninfected cultures ([3]; mock-infected H9 cells, 16 hours): did not appear to cause a similar increase

IL-15: cytokine
level of APOBEC3G in peripheral blood lymphocytes [1]: increased expression

CC(C)[C@H](O)[C@@]12NC(=O)[C@H](C)[C@@H]1OC2=O [clasto-Lactacystin-β-Lactone]
levels of APOBEC3G-HA in the presence of Vif compared to diluent control (0.1% DMSO) ([2]; 110 μM, 20 μM): enhanced | levels of APOBEC3G-HA in the presence of Vif compared to diluent control (0.1% DMSO) ([2]; 110 μM, 20 μM, listed as clasto-lactacystin-β-lactone): elevated

CC(=O)O[C@@]12C[C@@H](C)[C@@]3(O)[C@@H](C=C(CO)C[C@]4(O)C(=O)C(C)=C[C@@H]34)[C@@H]1C2(C)C [prostratin, 12-deoxyphorbol-13-acetate]
level of APOBEC3G in peripheral blood lymphocytes [1]: upregulated

CC(C)[C@H](NC(=O)OCc1ccccc1)C(=O)N[C@H](C=O)Cc1ccccc1 [Calpain Inhibitor III] (Cbz-Val-Phe-aldehyde)
levels of APOBEC3G-HA in the presence of Vif compared to diluent control (0.1% DMSO) ([2]; 50 μM): did not cause an increase | levels of APOBEC3G-HA in the presence of Vif compared to diluent control (0.1% DMSO) ([2]; 50 μM, listed as calpain inhibitor III): not
